Values joined by “and” are separate entries in the source; they are usually repeats but may differ in a detail not shown here. Equal entries are not always repeated. Toxic doses and inconclusive results are not listed. No stated cut-off is given here; in the data, active means T/C of 150% or more; inactive means T/C below 125%.
Tested on: L1210 leukemia ip in BDF1 mice, survival T/C
Assay: NCI In Vivo Anticancer Drug Screen. Data for tumor model L1210 Leukemia (intraperitoneal) in B6D2F1 (BDF1) mice
Conditions: endpoint: mean survival time, higher = longer survival
Summary of the method: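 Read-out is survival time, reported as the treated-group measurement over the vehicle-control measurement.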

[1] = dose: 100.0 mg/kg/injection, schedule: Q04DX003 (ip), vehicle: Klucel (hydroxypropylcellulose) (HPC)
[2] = dose: 200.0 mg/kg/injection, schedule: Q04DX003 (ip), vehicle: Klucel (hydroxypropylcellulose) (HPC)
[3] = dose: 100.0 mg/kg/injection, schedule: Q01DX009 (ip), vehicle: saline
[4] = dose: 200.0 mg/kg/injection, schedule: Q01DX009 (ip), vehicle: saline
[5] = dose: 100.0 mg/kg/injection, schedule: Q01DX009 (ip), vehicle: Klucel (hydroxypropylcellulose) (HPC)
[6] = dose: 200.0 mg/kg/injection, schedule: Q01DX009 (ip), vehicle: Klucel (hydroxypropylcellulose) (HPC)

Measured: T/C

CCC1(O)CC2CN(CCc3c([nH]c4ccccc34)C(C(=O)OC)(c3cc4c(cc3OC)N(C)C3C(O)(C(N)=O)C(O)C5(CC)C=CCN6CCC43C65)C2)C1 (stereo unspecified) (tested in a mixture with another compound)
inactive: dose: 0.43 mg/kg/injection, schedule: Q01DX009 (ip), vehicle: saline 124 % of control | dose: 1.2 mg/kg/injection, schedule: Q01DX009 (ip), vehicle: saline 97 % of control | dose: 648.0 micrograms/kg/injection, schedule: Q04DX003 (ip), vehicle: saline 123 % of control | dose: 5000.0 micrograms/kg/injection, schedule: Q04DX003 (ip), vehicle: saline 111 % of control

CC1CC(CN2c3ccccc3Sc3ccccc32)C(C)N1C (stereo unspecified)
inactive: dose: 12.5 mg/kg/injection, schedule: Q04DX003 (ip), vehicle: acetone 101 % of control | dose: 25.0 mg/kg/injection, schedule: Q04DX003 (ip), vehicle: acetone 120 % of control

COc1cc(C)c(Cc2cnc(N)nc2N)cc1OC
inactive: [1] 97 % of control | [2] 89 % of control

NC(=O)CC(O)C(N)=O (stereo unspecified)
inactive: [3] 94 % of control | dose: 100.0 mg/kg/injection, schedule: Q04DX003 (ip), vehicle: saline 104 % of control | [4] 95 % of control | dose: 200.0 mg/kg/injection, schedule: Q04DX003 (ip), vehicle: saline 106 % of control | dose: 400.0 mg/kg/injection, schedule: Q01DX009 (ip), vehicle: saline 99 % of control | dose: 400.0 mg/kg/injection, schedule: Q04DX003 (ip), vehicle: saline 96 % of control

CC(=O)c1ccc[n+](C)c1
inactive: dose: 50.0 mg/kg/injection, schedule: Q01DX009 (ip), vehicle: saline 102 % of control | [3] 100 % of control | [4] 91 % of control

CCCC(C)(O)C(=O)O (stereo unspecified)
inactive: dose: 25.0 mg/kg/injection, schedule: Q04DX002 (ip), vehicle: saline 100 % of control | dose: 50.0 mg/kg/injection, schedule: Q04DX002 (ip), vehicle: saline 103 % of control | dose: 100.0 mg/kg/injection, schedule: Q04DX002 (ip), vehicle: saline 95 % of control

CC(=O)C1=C(O)c2ccccc2C(=O)C1=O
inactive: dose: 100.0 mg/kg/injection, schedule: Q01DX001 (ip), vehicle: water 96 % of control

Cc1c[n+](CC(=O)c2ccccc2)cn1CC(=O)c1ccccc1
inactive: dose: 25.0 mg/kg/injection, schedule: Q01DX009 (ip), vehicle: Klucel (hydroxypropylcellulose) (HPC) 102 % of control and 105 % of control | dose: 25.0 mg/kg/injection, schedule: Q04DX002 (ip), vehicle: Klucel (hydroxypropylcellulose) (HPC) 95 % of control and 102 % of control | dose: 50.0 mg/kg/injection, schedule: Q01DX009 (ip), vehicle: Klucel (hydroxypropylcellulose) (HPC) 100 % of control and 116 % of control | dose: 50.0 mg/kg/injection, schedule: Q04DX002 (ip), vehicle: Klucel (hydroxypropylcellulose) (HPC) 95 % of control and 100 % of control | [5] 102 % of control and 108 % of control

CN(C)C(=S)Nc1ccccc1
inactive: [3] 114 % of control | dose: 130.0 mg/kg/injection, schedule: Q01DX009 (ip), vehicle: Klucel (hydroxypropylcellulose) (HPC) 98 % of control | [6] 103 % of control

O=c1oc2cc(N=Cc3ccc4c(c3)OCO4)ccc2c2ccccc12
inactive: dose: 100.0 mg/kg/injection, schedule: Q01DX001 (ip), vehicle: other 91 % of control | dose: 200.0 mg/kg/injection, schedule: Q01DX001 (ip), vehicle: other 93 % of control | dose: 400.0 mg/kg/injection, schedule: Q01DX001 (ip), vehicle: other 90 % of control

CC(=O)N[Si](C)(C)C
inactive: dose: 100.0 mg/kg/injection, schedule: Q01DX001 (ip), vehicle: saline 102 % of control | dose: 200.0 mg/kg/injection, schedule: Q01DX001 (ip), vehicle: saline 100 % of control | dose: 400.0 mg/kg/injection, schedule: Q01DX001 (ip), vehicle: saline 98 % of control

C/C=C/C[P+](Cc1ccccc1)(c1ccccc1)c1ccccc1
inactive: dose: 3.13 mg/kg/injection, schedule: Q01DX009 (ip), vehicle: saline with Tween-80 103 % of control | dose: 12.5 mg/kg/injection, schedule: Q01DX009 (ip), vehicle: saline with Tween-80 120 % of control and 91 % of control

CC(C)(c1ccsc1)c1sccc1C(=O)O
inactive: dose: 100.0 mg/kg/injection, schedule: Q04DX003 (ip), vehicle: saline with Tween-80 100 % of control | dose: 200.0 mg/kg/injection, schedule: Q04DX003 (ip), vehicle: saline with Tween-80 87 % of control | dose: 400.0 mg/kg/injection, schedule: Q04DX003 (ip), vehicle: saline with Tween-80 87 % of control

S=C1NC2(CCCCC2)NC12CCCCC2
inactive: [5] 97 % of control | [1] 101 % of control | [6] 98 % of control | [2] 103 % of control | dose: 400.0 mg/kg/injection, schedule: Q01DX009 (ip), vehicle: Klucel (hydroxypropylcellulose) (HPC) 93 % of control | dose: 400.0 mg/kg/injection, schedule: Q04DX003 (ip), vehicle: Klucel (hydroxypropylcellulose) (HPC) 101 % of control
